Test results published in patent publication US20040224958A1, “Pyridopyrimidinone derivatives for treatment of neurodegenerative disease” (priority 2000, published 2004).

How the values were obtained:
Cdk5/p25 = Cdk5/p25 (Homo sapiens, UniProt Q00535); test: Cyclin-Dependent Kinase 5 High Throughput Screening (cdk5-HTS) Assay; format: biochemical; details: high throughput screen
In short: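 IC50 determined from 33P incorporation into GST-RbCOOH captured on glutathione plates and read by scintillation counting. Reaction: 1.0 μg/mL Cdk5/p25, 20 μM [γ33P]ATP, pH 7.4 Tris buffer with MgCl2 and DTT, 30 min at room temperature, stopped with EDTA.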

cdk2/cyclinE = cdk2/cyclinE (Homo sapiens, UniProt P24941); test: Cyclin-Dependent Kinase Assay cdk2/cyclinE; details: cdk2/E IC50
cdk4/D = cdk4/D (Homo sapiens, UniProt P11802); test: Cyclin-Dependent Kinase 4 (cdk4) Assay; format: biochemical; details: read-out: cdk4/D IC50
cdc2/cyclinB = cdc2/cyclinB (Homo sapiens, UniProt P06493); test: Cyclin-Dependent Kinase Assay cdc2/cyclinB
cdk2/cyclinA = cdk2/cyclinA (Homo sapiens, UniProt P24941); test: Cyclin-Dependent Kinase Assay cdk2/cyclinA; details: cdk2/A IC50

cdc2/cyclinB, sequence (P06493 whole entry): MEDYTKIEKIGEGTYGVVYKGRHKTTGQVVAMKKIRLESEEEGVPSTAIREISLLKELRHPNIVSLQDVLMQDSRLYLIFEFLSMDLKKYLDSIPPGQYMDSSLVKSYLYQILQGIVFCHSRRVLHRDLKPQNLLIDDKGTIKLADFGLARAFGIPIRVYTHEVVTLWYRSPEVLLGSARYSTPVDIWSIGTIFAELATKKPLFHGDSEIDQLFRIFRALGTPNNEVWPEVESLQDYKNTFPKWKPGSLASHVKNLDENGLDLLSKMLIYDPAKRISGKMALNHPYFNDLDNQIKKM
cdc2/cyclinB, sequence (P14635 whole entry, further chain): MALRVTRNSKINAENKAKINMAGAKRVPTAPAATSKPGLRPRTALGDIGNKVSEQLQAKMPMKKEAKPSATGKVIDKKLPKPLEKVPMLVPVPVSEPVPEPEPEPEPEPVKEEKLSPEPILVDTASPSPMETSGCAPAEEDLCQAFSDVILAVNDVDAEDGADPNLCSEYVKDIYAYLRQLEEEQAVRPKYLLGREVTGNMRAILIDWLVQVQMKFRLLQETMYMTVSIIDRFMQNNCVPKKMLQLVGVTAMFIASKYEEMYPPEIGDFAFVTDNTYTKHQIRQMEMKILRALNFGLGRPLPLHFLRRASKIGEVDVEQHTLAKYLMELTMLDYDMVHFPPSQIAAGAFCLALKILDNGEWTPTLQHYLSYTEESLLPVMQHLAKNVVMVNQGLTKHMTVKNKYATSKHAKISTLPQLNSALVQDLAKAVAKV
cdk4/D, sequence (P11802 whole entry): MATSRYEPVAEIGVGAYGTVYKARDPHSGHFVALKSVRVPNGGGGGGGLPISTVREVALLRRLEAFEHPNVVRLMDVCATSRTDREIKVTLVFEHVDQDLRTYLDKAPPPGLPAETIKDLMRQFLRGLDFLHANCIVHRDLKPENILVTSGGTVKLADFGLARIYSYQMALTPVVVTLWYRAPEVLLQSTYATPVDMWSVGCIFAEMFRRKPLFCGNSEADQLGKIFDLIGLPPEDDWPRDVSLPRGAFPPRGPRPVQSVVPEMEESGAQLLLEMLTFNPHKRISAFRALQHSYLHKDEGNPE
cdk4/D, sequence (P24385 whole entry, further chain): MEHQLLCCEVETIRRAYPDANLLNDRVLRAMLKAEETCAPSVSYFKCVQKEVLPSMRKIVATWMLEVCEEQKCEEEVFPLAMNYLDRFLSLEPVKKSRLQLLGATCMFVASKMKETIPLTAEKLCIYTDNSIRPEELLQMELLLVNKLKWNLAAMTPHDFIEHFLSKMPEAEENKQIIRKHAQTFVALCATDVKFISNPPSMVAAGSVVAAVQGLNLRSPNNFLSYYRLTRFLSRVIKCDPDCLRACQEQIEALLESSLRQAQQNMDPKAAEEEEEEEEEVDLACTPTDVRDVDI

Structure (SMILES) | melting point | IC50 (Cdk5/p25) | IC50 (cdk2/cyclinE) | IC50 (cdk4/D) | IC50 (cdc2/cyclinB) | IC50 (cdk2/cyclinA)
CCn1c(=O)ccc2cnc(Nc3ccc(-n4cccc4)cc3)nc21 [Example 110, 8-Ethyl-2-(4-pyrrol-1-yl-phenylamino)-8H-pyrido[2,3-d]pyrimidin-7-one] | 220 to 222 °C |  |  |  |  | 
CCNc1ncc2ccc(=O)n(-c3ccccc3)c2n1 [Example 100, 2-Ethylamino-8-phenyl-8H-pyrido[2,3-d]pyrimidin-7-one] | 193 to 195 °C |  |  |  |  | 
O=c1ccc2cnc(Nc3ccc(O)cc3F)nc2n1C1CCCC1 [Example 538, 8-Cyclopentyl-2-(2-fluoro-4-hydroxy-phenylamino)-8H-pyrido[2,3-d]pyrimidin-7-one] |  | 0.145 µM | 0.0727 µM | 0.338 µM | 0.425 µM | 0.32 µM
O=c1[nH]c2cc(Nc3ncc4ccc(=O)n(C5CCCC5)c4n3)ccc2o1 [Example 554, 8-Cyclopentyl-2-(2-oxo-2,3-dihydro-benzoxazol-5-ylamino)-8H-pyrido[2,3-d]pyrimidin-7-one] |  | 0.032 µM | 0.152 µM | 0.23 µM | 0.169 µM | 0.148 µM
CCCCn1c(=O)ccc2cnc(Nc3ccc(F)cc3F)nc21 [Example 368, 8-Butyl-2-(2,4-difluoro-phenylamino)-8H-pyrido[2,3-d]pyrimidin-7-one] |  | 0.723 µM | 0.836 µM | 3.01 µM | 1.36 µM | 3.06 µM
CC(C)n1c(=O)ccc2cnc(Nc3ccc(Cl)c(C(F)(F)F)c3)nc21 [Example 421, 2-(4-Chloro-3-trifluoromethyl-phenylamino)-8-isopropyl-8H-pyrido[2,3-d]pyrimidin-7-one] |  | 0.083 µM | 3.9 µM | 1.9 µM | 0.7 µM | 0.92 µM
O=c1ccc2cnc(Nc3ccc(O)c(Cl)c3)nc2n1CC(F)(F)F [Example 597, 2-(3-Chloro-4-hydroxy-phenylamino)-8-(2,2,2-trifluoro-ethyl)-8H-pyrido[2,3-d]pyrimidin-7-one] |  | 0.25 µM | 0.317 µM | 2 µM | 0.435 µM | 1.01 µM
CCC(C)n1c(=O)ccc2cnc(Nc3ccc(I)c(Cl)c3)nc21 (stereo not drawn) [Example 464, 8-sec-Butyl-2-(3-chloro-4-iodo-phenylamino)-8H-pyrido[2,3-d]pyrimidin-7-one] |  | 0.017 µM | 0.13 µM | 0.15 µM | 0.17 µM | 0.31 µM
CCCCn1c(=O)ccc2cnc(Nc3cc(Cl)c(O)c(Cl)c3)nc21 [Example 384, 8-Butyl-2-(3,5-dichloro-4-hydroxy-phenylamino)-8H-pyrido[2,3-d]pyrimidin-7-one] |  | 0.0915 µM | 0.0257 µM | 1.13 µM | 0.115 µM | 0.0985 µM
N#Cc1ccc(Nc2ncc3ccc(=O)n(C4CCCC4)c3n2)cc1 [Example 531, 4-(8-Cyclopentyl-7-oxo-7,8-dihydro-pyrido[2,3-d]pyrimidin-2-ylamino)-benzonitrile] |  | 0.05 µM | 0.1 µM | 0.051 µM | 0.17 µM | 0.074 µM
Cc1ccc(Nc2ncc3ccc(=O)n(C4CCCC4)c3n2)cc1Cl [Example 545, 2-(3-Chloro-4-methyl-phenylamino)-8-cyclopentyl-8H-pyrido[2,3-d]pyrimidin-7-one] |  | 0.025 µM | 0.14 µM | 0.055 µM | 0.18 µM | 0.31 µM

Continued, values first:

melting point | IC50 (Cdk5/p25) | IC50 (cdk2/cyclinE) | IC50 (cdk4/D) | IC50 (cdc2/cyclinB) | IC50 (cdk2/cyclinA) | Structure (SMILES)
163 to 164 °C |  |  |  |  |  | CCCn1c(=O)ccc2cnc(Nc3ccccc3)nc21 [Example 41, 2-Phenylamino-8-propyl-8H-pyrido[2,3-d]pyrimidin-7-one]
198 to 199 °C |  |  |  |  |  | O=c1ccc2cnc(Nc3ccc(F)cc3)nc2n1C1CCCCCC1 [Example 184, 8-Cycloheptyl-2-(4-fluoro-phenylamino)-8H-pyrido[2,3-d]pyrimidin-7-one]
 | 0.015 µM | 0.027 µM | 0.13 µM | 0.09 µM | 0.033 µM | CC(C)n1c(=O)ccc2cnc(Nc3ccc(S(N)(=O)=O)cc3)nc21 [Example 418, 4-(8-Isopropyl-7-oxo-7,8-dihydro-pyrido[2,3-d]pyrimidin-2-ylamino)-benzenesulfonamide]
 | 0.066 µM | 0.11 µM | 0.054 µM | 0.3 µM | 0.59 µM | NS(=O)(=O)c1cccc(Nc2ncc3ccc(=O)n(C4CCCC4)c3n2)c1 [Example 547, 3-(8-Cyclopentyl-7-oxo-7,8-dihydro-pyrido[2,3-d]pyrimidin-2-ylamino)-benzenesulfonamide]
 | 0.044 µM | 0.093 µM | 0.036 µM | 0.11 µM | 0.4 µM | CCC(CC)n1c(=O)ccc2cnc(Nc3ccc(C#N)c(NC(C)=O)c3)nc21 [Example 506, N-{2-Cyano-5-[8-(-ethyl-propyl)-7-oxo-7,8-dihydro-pyrido[2,3-d]pyrimidin-2-ylamino]-phenyl}-acetamide]
 | 0.15 µM | 0.025 µM | 0.43 µM | 0.15 µM | 0.1 µM | CCCn1c(=O)ccc2cnc(Nc3ccc(F)c(C)c3)nc21 [Example 337, 2-(4-Fluoro-3-methyl-phenylamino)-8-propyl-8H-pyrido[2,3-d]pyrimidin-7-one]
 | 0.028 µM | 0.046 µM | 0.39 µM | 0.093 µM | 0.16 µM | CCC(CC)n1c(=O)ccc2cnc(Nc3cc(C)c(O)c(C)c3)nc21 [Example 523, 8-(1-Ethyl-propyl)-2-(4-hydroxy-3,5-dimethyl-phenylamino)-8H-pyrido[2,3-d]pyrimidin-7-one]
 | 0.107 µM | 0.147 µM | 0.57 µM | 0.215 µM | 0.65 µM | CCC(CC)n1c(=O)ccc2cnc(Nc3ccc(O)cc3F)nc21 [Example 495, 8-(1-Ethyl-propyl)-2-(2-fluoro-4-hydroxy-phenylamino)-8H-pyrido[2,3-d]pyrimidin-7-one]
 | 0.145 µM | 0.157 µM | 0.357 µM | 0.425 µM | 0.42 µM | CCCn1c(=O)ccc2cnc(Nc3ccccc3)nc21 [Example 309, 2-Phenylamino-8-propyl-8H-pyrido[2,3-d]pyrimidin-7-one]
 | 0.295 µM | 1.06 µM | 0.965 µM | 0.485 µM | 1.25 µM | CCn1c(=O)ccc2cnc(Nc3ccc(NC(=O)OC(C)(C)C)cc3)nc21 [Example 288, [4-(8-Ethyl-7-oxo-7,8-dihydro-pyrido[2,3-d]pyrimidin-2-ylamino)-phenyl]-carbamic acid tert-butyl ester]
 | 0.063 µM | 0.71 µM | 0.36 µM | 0.53 µM | 0.075 µM | CC(C)n1c(=O)ccc2cnc(Nc3ccc(OC(F)(F)F)cc3)nc21 [Example 444, 8-Isopropyl-2-(4-trifluoromethoxy-phenylamino)-8H-pyrido[2,3-d]pyrimidin-7-one]
 | 0.59 µM | 0.3 µM | 1.1 µM | 0.6 µM | 2.6 µM | CCCCn1c(=O)ccc2cnc(Nc3cc(OC)cc(C(F)(F)F)c3)nc21 [Example 396, 8-Butyl-2-(3-methoxy-5-trifluoromethyl-phenylamino)-8H-pyrido[2,3-d]pyrimidin-7-one]
